Data reported in ChEMBL document CHEMBL1126208, “Synthesis and antileukemic activity of etoposide a-ring analogs” (Bioorg Med Chem Lett, 1992).
≈ marks a conversion by molar mass, not a printed value.

What was measured:
HCT-116 [1] = test: Compound was tested for its in vitro cytotoxicity in HCT116 cell line after 72 hours; assay type: functional, cell-based; details: Homo sapiens, HCT-116, 72 h
Mus musculus [2] = test: Anti-P388 Leukemia activity after 70 mg/kg/injection ip administration on days 5 and 8 expressed as percent of median survival time of drug treated mice compared to saline treated controls.; assay type: functional; details: route intraperitoneal
Mus musculus [3] = test: Anti-P388 Leukemia activity after 140 mg/kg/injection ip administration on days 5 and 8 expressed as percent of median survival time of drug treated mice compared to saline treated controls.; assay type: functional; details: route intraperitoneal
Mus musculus [4] = test: Anti-P388 Leukemia activity determined when compound 120 mg/kg was administered ip on day 26 on mice expressed as the Long -term survivors (LTS); mice alive/total No of mice tested=6; assay type: functional; details: route intraperitoneal
HCT-116 [5] = test: Compound was tested for its in vitro cytotoxicity in HCT-VP35 cell line after 72 hours; assay type: functional, cell-based; details: Homo sapiens, HCT-116, 72 h
Mus musculus [6] = test: Anti-P388 Leukemia activity after 280 mg/kg/injection ip administration on days 5 and 8 expressed as percent of median survival time of drug treated mice compared to saline treated controls.; assay type: functional; details: route intraperitoneal
[7] = Ratio of IC50 of HCT-VP35 to IC50 of HCT116.; assay type: functional
Mus musculus [8] = test: Anti-P388 Leukemia activity determined when compound 150 mg/kg was administered ip on day 51 on mice expressed as the Long -term survivors (LTS); mice alive/total; assay type: functional; details: route intraperitoneal
[9] = Ratio of IC50 of HCT-VP35 to IC50 of HCT116; assay type: functional
Mus musculus [10] = test: Anti-P388 Leukemia activity determined when compound 150 mg/kg was administered ip on day 48 on mice expressed as the Long -term survivors (LTS); mice alive/total No of mice tested=6; assay type: functional; details: route intraperitoneal
Mus musculus [11] = test: Anti-P388 Leukemia activity determined when compound 120 mg/kg was administered ip on day 53 on mice expressed as the Long -term survivors (LTS); mice alive/total No of mice tested=6; assay type: functional; details: route intraperitoneal
Mus musculus [12] = test: Anti-P388 Leukemia activity determined when compound 150 mg/kg was administered ip on day 48 on mice expressed as the Long -term survivors (LTS); mice alive/total; No of mice tested=6; assay type: functional; details: route intraperitoneal
Mus musculus [13] = test: Anti-P388 Leukemia activity determined when compound 150 mg/kg was administered ip on day 51 on mice expressed as the Long -term survivors (LTS); mice alive/total; total no of mice =6; assay type: functional; details: route intraperitoneal

## COc1cc([C@@H]2c3cc4oc(=S)oc4cc3[C@@H](O[C@@H]3O[C@@H]4CO[C@@H](C)O[C@H]4[C@H](O)[C@H]3O)[C@H]3COC(=O)[C@H]23)cc(OC)c1O
HCT-116 [1]
  IC50: > 15.6 µg/mL
Mus musculus [2]
  T/C: 130
Mus musculus [3]
  T/C: 155
Mus musculus [4]
  LTS: 6
HCT-116 [5]
  IC50: > 15.6 µg/mL
Mus musculus [6]
  T/C: 170

## COc1cc([C@@H]2c3cc4c(cc3[C@@H](O[C@@H]3O[C@@H]5CO[C@@H](C)O[C@H]5[C@H](O)[C@H]3O)[C@H]3COC(=O)[C@H]23)OCO4)cc(OC)c1O [ETOPOSIDE]
HCT-116 [1]
  IC50: 0.34 µg/mL (≈ 0.578 µM)
[7]
  Ratio: 5.2
HCT-116 [5]
  IC50: 1.78 µg/mL (≈ 3.02 µM)

## COc1cc([C@@H]2c3cc(OC(C)=O)c(OC(C)=O)cc3[C@@H](O[C@@H]3O[C@@H]4CO[C@@H](C)O[C@H]4[C@H](O)[C@H]3O)[C@H]3COC(=O)[C@H]23)cc(OC)c1O
HCT-116 [1]
  IC50: 19.6 µg/mL (≈ 29.6 µM)
Mus musculus [2]
  T/C: 144
Mus musculus [3]
  T/C: 167
HCT-116 [5]
  IC50: 27.1 µg/mL (≈ 41 µM)
Mus musculus [6]
  T/C: 194
Mus musculus [8]
  LTS: 4
[9]
  Ratio: 1.4

## CCCCCCCC(=O)Oc1cc2c(cc1OC(=O)CCCCCCC)[C@@H](O[C@@H]1O[C@@H]3CO[C@@H](C)O[C@H]3[C@H](O)[C@H]1O)[C@H]1COC(=O)[C@@H]1[C@@H]2c1cc(OC)c(O)c(OC)c1
HCT-116 [1]
  IC50: 8.03 µg/mL (≈ 9.69 µM)
Mus musculus [2]
  T/C: 120
Mus musculus [3]
  T/C: 125
[7]
  Ratio: 2.7
HCT-116 [5]
  IC50: 21.7 µg/mL (≈ 26.1 µM)
Mus musculus [10]
  LTS: 5
Mus musculus [6]
  T/C: 135

## COc1cc([C@@H]2c3cc(OC(=O)OCc4ccccc4)c(OC(=O)OCc4ccccc4)cc3[C@@H](O[C@@H]3O[C@@H]4CO[C@@H](C)O[C@H]4[C@H](O)[C@H]3O)[C@H]3COC(=O)[C@H]23)cc(OC)c1O
HCT-116 [1]
  IC50: 5.8 µg/mL (≈ 6.87 µM)
[7]
  Ratio: 2
HCT-116 [5]
  IC50: 11.8 µg/mL (≈ 14 µM)

## COc1cc([C@@H]2c3cc(O)c(O)cc3[C@@H](O[C@@H]3O[C@@H]4CO[C@@H](C)O[C@H]4[C@H](O)[C@H]3O)[C@H]3COC(=O)[C@H]23)cc(OC)c1O
HCT-116 [1]
  IC50: > 15.6 µg/mL
Mus musculus [2]
  T/C: 125
Mus musculus [3]
  T/C: 130
Mus musculus [11]
  LTS: 2
HCT-116 [5]
  IC50: > 15.6 µg/mL
Mus musculus [6]
  T/C: 165

## COc1cc([C@@H]2c3cc(O)c(O)cc3[C@@H](O[C@@H]3O[C@@H]4CO[C@@H](C)O[C@H]4[C@H](OC(=O)OCC(Cl)(Cl)Cl)[C@H]3OC(=O)OCC(Cl)(Cl)Cl)[C@H]3COC(=O)[C@H]23)cc(OC)c1OC(=O)OCC(Cl)(Cl)Cl
HCT-116 [1]
  IC50: 10.2 µg/mL (≈ 9.27 µM)
Mus musculus [2]
  T/C: 100
Mus musculus [3]
  T/C: 100
Mus musculus [12]
  LTS: 5
[7]
  Ratio: 0.87
HCT-116 [5]
  IC50: 8.95 µg/mL (≈ 8.12 µM)
Mus musculus [6]
  T/C: 105

## COc1cc2c(cc1OC)[C@@H](O[C@@H]1O[C@@H]3CO[C@@H](C)O[C@H]3[C@H](O)[C@H]1O)[C@H]1COC(=O)[C@@H]1[C@@H]2c1cc(OC)c(O)c(OC)c1
HCT-116 [1]
  IC50: 1.61 µg/mL (≈ 2.66 µM)
Mus musculus [2]
  T/C: 189
Mus musculus [3]
  T/C: 189
Mus musculus [13]
  LTS: 4
[7]
  Ratio: 6.4
HCT-116 [5]
  IC50: 10.3 µg/mL (≈ 17.1 µM)
Mus musculus [6]
  T/C: 228
